The results in this text go back to patent US20260226060A1, “SALTS AND CRYSTALLINE FORMS OF COMPOUND A, METHODS OF PREPARATION, AND USES THEREOF” (SHENZHEN NEWDEL BIOTECH CO., LTD., priority 2023, published 2026).

What all share (format): physicochemical
Data set [1] can be described thus: Short-term physical stability of anhydrous crystal forms (40° C./75% RH, open, 1 day; XRPD). An excerpt:
In addition to the mesylate crystalline form I, the other anhydrous crystalline forms were stable under high humidity conditions.

Data set [2] is described as follows: Solubility analysis in biological solvents (SGF, FaSSIF, FeSSIF) and water, with pH and XRPD of residual solid. As for the experimental part:
(§1) HPLC analysis was performed by using an Agilent HPLC 1260 series instrument and the HPLC methods used for solubility and stability determinations were shown in Tables 33 and 34, respectively.

A short description of data set [3]: Dynamic vapor sorption (DVS) hygroscopicity. As for the experimental part:
The water vapor sorption/desorption data of the samples were collected on a dynamic vapor sorption instrument (proUmid GmbH & Co. KG, Germany). Approximately 50-70 mg of sample was placed in a sample pan previously tared and the weight of the sample was measured accurately.

A short description of data set [4]: Solid state stability at 60° C. (closed) and 40° C./75% RH (open), XRPD and HPLC purity. As to the method:
(closed) and 40° C./75 RH (open) for 14 days, XRPD analysis and purity analysis were performed at various points of time, and solid-state stability was evaluated.
as §1

The nature of data set [5]: Rough solubility of free base starting material, visually evaluated by solvent addition. An excerpt:
The rough solubility test of free base of compound A was visually evaluated by solvent addition, and the results were summarized in Table 1.

≈ marks a conversion by molar mass, not a printed value.

For the compound `Cc1c(C#Cc2cnc3ccc(N4CCC(O)CC4)nn23)cccc1C(=O)Nc1cc(Cl)cc(C(F)(F)F)c1` [Besylate crystalline form I], the “XPRD Results after short-term physical stability” value (“XPRD Results” below) in data set [1] is recorded as “unchanged”.

As for `Cc1c(C#Cc2cnc3ccc(N4CCC(O)CC4)nn23)cccc1C(=O)Nc1cc(Cl)cc(C(F)(F)F)c1` [Compound A, N-(3-chloro-5-(trifluoromethyl)phenyl)-3-((6-(4-hydroxypiperidin-1-yl)imidazo [1,2-b]pyridazin-3-yl)ethynyl)-2-methylbenzamide], the Solubility (commonly the concentration that dissolves in the medium under given conditions) in data set [2] (FeSSIF, 37 °C, pH 5, fessif, thermodynamic from solid, FeSSIF, read-out: solubility) is 200 to 1900 µg/mL (≈ 0.361 to 3.43 mM); in data set [2] (SGF and water) it was “< LOD”.

With `Cc1c(C#Cc2cnc3ccc(N4CCC(O)CC4)nn23)cccc1C(=O)Nc1cc(Cl)cc(C(F)(F)F)c1` [Free base crystalline form I], in data set [3], the “crystalline form after DVS analysis (XRPD)” value is “remained unchanged”. In addition, the “hygroscopicity (DVS)” value in data set [3] is recorded as “slightly hygroscopic”. Also, the “DVS The weight gains by vapor sorption %” value in data set [3] (80% RH) is 0.8%; in data set [3] (90% RH) it was 0.9%; in data set [3] (90% RH, listed as free base crystalline form I), around 0.9%. For the same compound, the “Purity in stability evaluation” value in data set [4] (0 d) is listed as 98.63 Area %; in data set [4] (7 d-40° C./75% RH), 98.60 Area %; in data set [4] (7 d-60° C./capped) it was 98.61 Area %; in data set [4] (14 d-40° C./75% RH), 98.61 Area %; in data set [4] (14 d-60° C./capped), 98.70 Area %. The “Solid state stability-14 days” value in data set [4] (60° C./Closed and 40° C./75% RH (Open), 14 days) is “physically and chemically stable”. Moreover, the “XRPD in stability evaluation” value in data set [4] (7 d-40° C./75% RH), in data set [4] (7 d-60° C./capped), in data set [4] (14 d-40° C./75% RH) and in data set [4] (14 d-60° C./capped) was “unchanged” each time. Moreover, the Solubility was above 50000 µg/mL in data set [5] (2-methyltetrahydrofuran, organic solvent or mixture, thermodynamic from solid, 2-methyltetrahydrofuran, read-out: Solubility); 50000 to 100000 µg/mL in data set [5] (2-methyltetrahydrofuran, listed as starting material); 20000 to 50000 µg/mL (≈ 36.1 to 90.3 mM) in data set [5] (acetone, organic solvent or mixture, thermodynamic from solid, acetone, read-out: Solubility); 1000 to 5000 µg/mL (≈ 1.81 to 9.03 mM) in data set [5] (acetonitrile, organic solvent or mixture, thermodynamic from solid, acetonitrile, read-out: Solubility); 3000 to 5000 µg/mL (≈ 5.42 to 9.03 mM) in data set [5] (acetonitrile/water, 19/1 (v/v), organic solvent or mixture, thermodynamic from solid, acetonitrile/water, 19/1 (v/v), read-out: Solubility); above 50000 µg/mL in data set [5] (butanone, organic solvent or mixture, thermodynamic from solid, butanone, read-out: Solubility). For the same compound, the Solubility is 50000 to 100000 µg/mL in data set [5] (butanone, listed as starting material); 3000 to 5000 µg/mL (≈ 5.42 to 9.03 mM) in data set [5] (dichloromethane, organic solvent or mixture, thermodynamic from solid, dichloromethane, read-out: Solubility); 5000 to 20000 µg/mL (≈ 9.03 to 36.1 mM) in data set [5] (ethanol, organic solvent or mixture, thermodynamic from solid, ethanol, read-out: Solubility); 5000 to 20000 µg/mL (≈ 9.03 to 36.1 mM) in data set [5] (ethyl acetate, organic solvent or mixture, thermodynamic from solid, ethyl acetate, read-out: Solubility); 20000 to 50000 µg/mL (≈ 36.1 to 90.3 mM) in data set [5] (isopropanol, organic solvent or mixture, thermodynamic from solid, isopropanol, read-out: Solubility); 5000 to 20000 µg/mL (≈ 9.03 to 36.1 mM) in data set [5] (isopropyl acetate, organic solvent or mixture, thermodynamic from solid, isopropyl acetate, read-out: Solubility). The Solubility in data set [5] (methanol, organic solvent or mixture, thermodynamic from solid, methanol, read-out: Solubility) was 3000 to 5000 µg/mL (≈ 5.42 to 9.03 mM); in data set [5] (methyl isobutyl ketone, organic solvent or mixture, thermodynamic from solid, methyl isobutyl ketone, read-out: Solubility), 5000 to 20000 µg/mL (≈ 9.03 to 36.1 mM); in data set [5] (methyl tert-butyl ether, organic solvent or mixture, thermodynamic from solid, methyl tert-butyl ether, read-out: Solubility), 2000 to 5000 µg/mL (≈ 3.61 to 9.03 mM); in data set [5] (n-heptane, organic solvent or mixture, thermodynamic from solid, n-heptane, read-out: Solubility), below 1000 µg/mL; in data set [5] (n-heptane, listed as starting material) it was below 1000 µg/mL; in data set [5] (tetrahydrofuran, organic solvent or mixture, thermodynamic from solid, tetrahydrofuran, read-out: Solubility), above 50000 µg/mL. Moreover, the Solubility in data set [5] (tetrahydrofuran, listed as starting material) is above 100000 µg/mL; in data set [5] (toluene, organic solvent or mixture, thermodynamic from solid, toluene, read-out: Solubility), below 1000 µg/mL; in data set [5] (toluene, listed as starting material), below 1000 µg/mL; in data set [5] (water, thermodynamic from solid, water, read-out: Solubility), below 1000 µg/mL; in data set [5] (water, listed as starting material), below 1000 µg/mL; in data set [2] (FaSSIF, 0.5 h, 37° C., target 5 mg/mL) it was 14 µg/mL (≈ 0.0253 mM). Moreover, the Solubility in data set [2] (FaSSIF, 0.5 h, 37° C., target 5 mg/mL, listed as free base crystalline form I) was found to be 14 µg/mL (≈ 0.0253 mM); in data set [2] (FaSSIF, 2 h, 37° C., target 5 mg/mL), 13 µg/mL (≈ 0.0235 mM); in data set [2] (FaSSIF, 2 h, 37° C., target 5 mg/mL, listed as free base crystalline form I), 13 µg/mL (≈ 0.0235 mM); in data set [2] (FaSSIF, 24 h, 37° C., target 5 mg/mL) it was 11 µg/mL (≈ 0.0199 mM); in data set [2] (FeSSIF, 0.5 h, 37° C., target 5 mg/mL), 181 µg/mL (≈ 0.327 mM); in data set [2] (FeSSIF, 0.5 h, 37° C., target 5 mg/mL, listed as free base crystalline form I), 181 µg/mL (≈ 0.327 mM). Also, the Solubility in data set [2] (FeSSIF, 2 h, 37° C., target 5 mg/mL) was 221 µg/mL (≈ 0.399 mM); in data set [2] (FeSSIF, 2 h, 37° C., target 5 mg/mL, listed as free base crystalline form I) it was 221 µg/mL (≈ 0.399 mM); in data set [2] (FeSSIF, 24 h, 37° C., target 5 mg/mL), 418 µg/mL (≈ 0.755 mM); in data set [2] (SGF, 0.5 h, 37° C., target 5 mg/mL) it was “<LOD”; in data set [2] (SGF, 0.5 h, 37° C., target 5 mg/mL, listed as free base crystalline form I) it was “<LOD/<LOD/”; in data set [2] (SGF, 2 h, 37° C., target 5 mg/mL) it was “<LOD”. Besides, the Solubility entry was “<LOD/<LOD/” in data set [2] (SGF, 2 h, 37° C., target 5 mg/mL, listed as free base crystalline form I); “<LOD” in data set [2] (SGF, 24 h, 37° C., target 5 mg/mL); “<LOD/<LOD/” in data set [2] (water, 0.5 h, 37° C., target 5 mg/mL); “<LOD/<LOD/” in data set [2] (water, 2 h, 37° C., target 5 mg/mL); “<LOD” in data set [2] (water, 24 h, 37° C., target 5 mg/mL). For the same compound, the “pH in solubility analysis” value in data set [2] (FaSSIF (medium pH 6.5), 0.5 h) is listed as 6.4; in data set [2] (FaSSIF (medium pH 6.5), 2 h) it was 6.3; in data set [2] (FaSSIF (medium pH 6.5), 24 h), 6.4; in data set [2] (FeSSIF (medium pH 5.0), 0.5 h), 5.0; in data set [2] (FeSSIF (medium pH 5.0), 2 h), 5.0; in data set [2] (FeSSIF (medium pH 5.0), 24 h), 5.1. The “pH in solubility analysis” value in data set [2] (SGF (medium pH 1.2), 0.5 h) is 1.3; in data set [2] (SGF (medium pH 1.2), 2 h) it was 1.4; in data set [2] (SGF (medium pH 1.2), 24 h) it was 1.2; in data set [2] (water (medium pH 6.6), 0.5 h), 6.6; in data set [2] (water (medium pH 6.6), 2 h), 6.5; in data set [2] (water (medium pH 6.6), 24 h), 6.4. Further, the “XRPD of residual solid in solubility analysis” value in data set [2] (FaSSIF, 0.5 h) was “unchanged”; in data set [2] (FaSSIF, 24 h) it was “unchanged”; in data set [2] (FeSSIF, 0.5 h), “unchanged”; in data set [2] (FeSSIF, 24 h), “unchanged”; in data set [2] (SGF, 0.5 h), “unchanged”; in data set [2] (SGF, after 2 h), “amorphous”. Further, the “Solid form of residual solids in solubility analysis” value in data set [2] (summary over water, SGF, FaSSIF, FeSSIF) was “remained unchanged in water, FaSSIF and FeSSIF”.

For the compound `Cc1c(C#Cc2cnc3ccc(N4CCC(O)CC4)nn23)cccc1C(=O)Nc1cc(Cl)cc(C(F)(F)F)c1` [L-camphor sulfonate crystalline form II], in data set [3], the “hygroscopicity (DVS)” value is “slightly hygroscopic”. Further, the figures for the “DVS The weight gains by vapor sorption %” value in data set [3] (80% RH) and in data set [3] (90% RH) were 0.8% and 1.2%, respectively. Also, the “XPRD Results” value in data set [1] is recorded as “unchanged”.

Take `Cc1c(C#Cc2cnc3ccc(N4CCC(O)CC4)nn23)cccc1C(=O)Nc1cc(Cl)cc(C(F)(F)F)c1` [Mesylate crystalline form I]: in data set [1], the “XPRD Results” value is reported as “new crystalline form” and the “stability of crystalline form under high humidity conditions” value is on record as “unstable”.

In the case of `Cc1c(C#Cc2cnc3ccc(N4CCC(O)CC4)nn23)cccc1C(=O)Nc1cc(Cl)cc(C(F)(F)F)c1` [Oxalate crystalline form I], the “XPRD Results” value in data set [1] is given as “unchanged”.
